A word on the pKi: it is the Ki on a negative log10 scale, so that one unit is a factor of ten.

pKi: −log10 of the molar value.

The text below walks through data of ChEMBL document CHEMBL1149286 (J Med Chem, 2004).

The target in assay [1] is 5-hydroxytryptamine receptor 7 (Homo sapiens, UniProt P34969). In words: Agonist activity at 5-carboxamidotryptamine desensitized 5HT7 receptor assessed as relaxation of substance P-induced contraction of Dunkin-Hartley guinea pig ileum. Type of assay: functional, tissue-based. As to conditions: Cavia porcellus, target entry is the homologue from another species. Details: concentration or dose not given beside the values.

The target in assay [2] is 5-hydroxytryptamine receptor 7 (Rattus norvegicus, UniProt P32305). In words: Displacement of [3H]LSD from rat recombinant 5HT7 receptor expressed in HEK293 cells. Type of assay: cell-based. Background: Loss of bound radioactivity is the signal in a displacement assay; it reports binding, not function.
In assay [3] the target is 5-hydroxytryptamine receptor 2A (Rattus norvegicus, UniProt P14842). In words: (§1) Displacement of [3H]ketanserin from 5HT2A receptor in Wistar Han rat cortex membranes. The assay is classed as cell membranes, Membrane.
Assay [4] has as its target 5-hydroxytryptamine receptor 2A (Rattus norvegicus) (UniProt P14842). The description is as §1. Type of assay: cell membranes. The settings on record: Membrane.
For assay [5], the species on record is Rattus norvegicus. In words: Selectivity for rat 5HT7 receptor over rat 5HT2A receptor.
For assay [6], the species on record is Rattus norvegicus. In words: Selectivity for rat 5HT7 receptor over rat 5HT1A receptor.
Assay [7] concerns the target T1, 5-hydroxytryptamine receptor 1A (Rattus norvegicus, UniProt P19327).
T1 sequence (P19327 whole entry): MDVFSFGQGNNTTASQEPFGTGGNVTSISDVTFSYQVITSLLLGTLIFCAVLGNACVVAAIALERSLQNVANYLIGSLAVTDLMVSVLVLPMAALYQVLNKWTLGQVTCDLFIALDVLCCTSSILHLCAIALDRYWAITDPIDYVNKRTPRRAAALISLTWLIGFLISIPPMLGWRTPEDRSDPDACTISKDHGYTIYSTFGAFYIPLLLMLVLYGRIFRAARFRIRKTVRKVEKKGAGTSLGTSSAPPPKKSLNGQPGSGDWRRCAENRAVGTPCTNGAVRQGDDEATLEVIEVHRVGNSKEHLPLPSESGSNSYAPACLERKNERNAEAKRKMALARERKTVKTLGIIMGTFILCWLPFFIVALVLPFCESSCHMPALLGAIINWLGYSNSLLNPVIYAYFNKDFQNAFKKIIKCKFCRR
In words: Displacement of [3H]8-OH-DPAT from 5HT1A receptor in Wistar Han rat hippocampal membranes. Type of assay: cell membranes, Membrane.

5-hydroxytryptamine receptor 7 (Homo sapiens, UniProt P34969), sequence (P34969 whole entry): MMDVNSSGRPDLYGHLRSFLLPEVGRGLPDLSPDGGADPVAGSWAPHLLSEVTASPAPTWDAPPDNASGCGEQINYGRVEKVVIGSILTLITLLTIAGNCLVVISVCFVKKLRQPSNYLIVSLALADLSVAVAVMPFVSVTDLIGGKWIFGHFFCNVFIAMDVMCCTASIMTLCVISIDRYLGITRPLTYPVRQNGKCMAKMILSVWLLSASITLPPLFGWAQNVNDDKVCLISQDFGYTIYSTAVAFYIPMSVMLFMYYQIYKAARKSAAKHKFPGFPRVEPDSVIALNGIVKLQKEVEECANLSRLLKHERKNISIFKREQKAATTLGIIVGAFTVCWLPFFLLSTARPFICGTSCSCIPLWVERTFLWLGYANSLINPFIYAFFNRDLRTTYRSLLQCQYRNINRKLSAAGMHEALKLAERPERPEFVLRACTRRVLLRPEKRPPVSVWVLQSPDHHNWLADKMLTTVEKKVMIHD
5-hydroxytryptamine receptor 7 (Rattus norvegicus, UniProt P32305), sequence (P32305 whole entry): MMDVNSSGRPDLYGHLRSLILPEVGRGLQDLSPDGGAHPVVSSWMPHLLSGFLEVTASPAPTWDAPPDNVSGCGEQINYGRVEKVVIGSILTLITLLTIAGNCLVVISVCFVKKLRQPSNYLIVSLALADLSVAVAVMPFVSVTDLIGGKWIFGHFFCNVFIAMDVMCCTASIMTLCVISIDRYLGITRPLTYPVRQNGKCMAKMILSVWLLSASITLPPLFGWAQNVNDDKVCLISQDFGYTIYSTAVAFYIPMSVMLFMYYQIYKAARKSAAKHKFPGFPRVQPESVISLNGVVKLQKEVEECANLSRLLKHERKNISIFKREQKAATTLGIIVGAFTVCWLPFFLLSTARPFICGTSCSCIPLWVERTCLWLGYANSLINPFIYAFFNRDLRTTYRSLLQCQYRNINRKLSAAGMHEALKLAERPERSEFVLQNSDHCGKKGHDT
5-hydroxytryptamine receptor 2A, sequence (P14842 whole entry): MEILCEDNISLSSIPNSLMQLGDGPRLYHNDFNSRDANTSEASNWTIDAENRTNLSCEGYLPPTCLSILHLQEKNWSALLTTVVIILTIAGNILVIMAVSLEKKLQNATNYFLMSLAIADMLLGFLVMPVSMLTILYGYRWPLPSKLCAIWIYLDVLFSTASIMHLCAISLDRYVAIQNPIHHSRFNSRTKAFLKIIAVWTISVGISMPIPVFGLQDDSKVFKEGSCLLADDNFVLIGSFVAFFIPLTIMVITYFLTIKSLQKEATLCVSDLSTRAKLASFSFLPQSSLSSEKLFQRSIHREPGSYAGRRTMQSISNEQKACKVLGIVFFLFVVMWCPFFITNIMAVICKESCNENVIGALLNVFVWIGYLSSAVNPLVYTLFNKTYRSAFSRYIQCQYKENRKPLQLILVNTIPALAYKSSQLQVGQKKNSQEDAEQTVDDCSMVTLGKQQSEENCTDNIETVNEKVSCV
5-hydroxytryptamine receptor 2A (Rattus norvegicus), sequence (P14842 whole entry): as above

As to `CC(=O)c1ccccc1N1CCN(CCCCCC(=O)NC2CCCc3ccccc32)CC1` (centres undefined), the Activity in assay [1] was 79%.

Regarding `NCCc1c[nH]c2ccc(C(N)=O)cc12`, the Activity in assay [1] is 100%.

Turning to `COc1ccc2oc(N3CCN(CCCCCC(=O)NC4CCCc5ccccc54)CC3)nc2c1` (centres undefined), the negative-log Ki (pKi) in assay [2] was 6.15.

Turning to `NC(=O)c1ccccc1N1CCN(CCCCCC(=O)NC2CCCc3ccccc32)CC1` (centres undefined), the pKi in assay [3] is below 5.40. In assay [4], this compound yielded an Activity of 9%.

Turning to `Cc1ccccc1N1CCN(CCCCCC(=O)NC2CCCc3ccccc32)CC1` (centres undefined), in assay [1], the Activity came to 98%.

In assay [3], `CS(=O)(=O)c1ccccc1N1CCN(CCCCCC(=O)NC2CCCc3ccccc32)CC1` (centres undefined) showed a pKi below 5.40. In addition, the Activity in assay [4] came out at 38%.

For the compound `CSc1ccccc1N1CCN(CCCCCC(=O)NC2CCCc3ccccc32)CC1` (centres undefined), the Selectivity ratio in the assay listed under Rattus norvegicus [5] was above 1000; in the assay listed under Rattus norvegicus [6], 200. In addition, in assay [1], the Activity amounted to 100%.

Take `O=C(CCCCCN1CCN(c2ccccc2O)CC1)NC1CCCc2ccccc21` (centres undefined): the Activity in assay [1] came to 0%.

Take `O=C(CCCCCN1CCN(c2nc3ccccc3o2)CC1)NC1CCCc2ccccc21` (centres undefined): the pKi in assay [2] was 6.09.

On to `COc1ccccc1N1CCN(CC(=O)NC2CCCc3c(OC)cccc32)CC1` (centres undefined), for which, in assay [2], the negative-log Ki (pKi) was below 6.00.

With `COc1ccccc1N1CCN(CCCCCC(=O)NC2CCCc3ccccc32)CC1` (centres undefined), in assay [1], the Activity stood at 91%.

`O=C(CCCCCN1CCN(c2nc3ccccc3[nH]2)CC1)NC1CCCc2ccccc21` (centres undefined): the pKi in assay [7] was 5.59; in assay [2], 6.45.

With `O=C(CCCCCN1CCN(c2noc3ccccc23)CC1)NC1CCCc2ccccc21` (centres undefined), the pKi in assay [7] is 5.41; in assay [2] it was 6.90.
